Patent publication US20240390298A1, “CYCLOHEXYL BETA-HYDROXY ALKYL AMINES AND MEDICAL USES THEREOF” (ATROGI AB, priority 2021, published 2024)
Counter-ions that a name gives are not always drawn.

What was measured:
L6-myotubes [1] = assay: Glucose uptake in differentiated L6-myotubes (3H-2-deoxyglucose), compared to isoproterenol; format: cell-based; settings: agonist 1×10^−5 M, 50 nM 3H-2-deoxyglucose; for Emax at 10 µM: read-out: Biological example 1: glucose uptake, activity compared to that of isoproterenol
In short: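 Serum-starved differentiated L6 myotubes stimulated with agonist at 1×10^−5 M for 1 h 40 min, re-dosed in glucose-free medium for 20 min, then given 50 nM ^3H-2-deoxyglucose for 10 min. Uptake read by β-counting of NaOH lysates; activity expressed relative to isoproterenol.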

L6-myotubes [2] = assay: Measurement of intracellular cAMP levels in differentiated L6 cells (alpha screen cAMP kit), compared to isoproterenol; format: cell-based; settings: agonist 1×10^−5 M, 15 min; for Emax at 10 µM: Rattus norvegicus, L6, 0.25 h, read-out: Biological example 2: intracellular cAMP levels, activity compared to that of isoproterenol
In short: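 L6 myoblasts were differentiated into myotubes over 7 days in 2% FBS, then serum-starved overnight. Agonist at 1×10^−5 M final was applied for 15 min in HBSS with 1% BSA, 5 mM HEPES and 1 mM IBMX, pH 7.4. After ethanol extraction and lysis, cAMP was quantified by AlphaScreen, with activity expressed relative to isoproterenol.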

SMILES | Biological example 1: glucose uptake, activity compared to that of isoproterenol (L6-myotubes [1]) | Emax at 10 µM (L6-myotubes [2]) [%] | Emax at 10 µM (L6-myotubes [1]) [%] | Biological example 2: intracellular cAMP levels, activity compared to that of isoproterenol (L6-myotubes [2])
COC(=O)[C@H]1CC[C@H](CCC(C)(C)NC[C@H](O)c2cccc(F)c2)CC1 [Example 115, Methyl (1R,4r)-4-(3-(((R)-2-(3-fluorophenyl)-2-hydroxyethyl)amino)-3-methylbutyl)cyclohexane-1-carboxylate] | + + + | < 25 |  | 
CO[C@H]1CC[C@@H](CCCNC[C@H](O)c2cncc(F)c2)CC1 [Example 20, (R)-1-(5-Fluoropyridin-3-yl)-2-((3-((1s,4R)-4-methoxycyclohexyl)propyl)-amino)ethan-1-ol] | + + + | < 25 |  | 
CO[C@H]1CC[C@@H](C(C)(C)NC[C@H](O)c2cccc(F)c2)CC1 [Example 5, (R)-1-(3-Fluorophenyl)-2-((2-((1s,4S)-4-methoxycyclohexyl)propan-2-yl)-amino)ethan-1-ol] |  | < 25 | < 25 | 
CCOC(=O)CO[C@H]1CC[C@H](C(C)(C)NC[C@H](O)c2cncc(F)c2)CC1 [Example 125, Ethyl 2-(((1R,4r)-4-(2-(((R)-2-(5-fluoropyridin-3-yl)-2-hydroxyethyl)-amino)propan-2-yl)cyclohexyl)oxy)acetate] | + + + | < 25 |  | 
O[C@@H](CNC[C@H]1CC[C@@H](OCc2ccccc2)CC1)c1cncc(F)c1 [Example 27, (R)-2-((((1s,4S)-4-(Benzyloxy)cyclohexyl)methyl)amino)-1-(5-fluoropyridin-3-yl)ethan-1-ol] | + + + | < 25 |  | 
CC(C)(C[C@H]1CC[C@H](S(N)(=O)=O)CC1)NC[C@H](O)c1cncc(F)c1 [Example 195, (1R,4r)-4-(2-(((R)-2-(5-Fluoropyridin-3-yl)-2-hydroxyethyl)amino)-2-methylpropyl)cyclohexane-1-sulfonamide dihydrochloride] | + + + | < 25 |  | 
CC(=O)N[C@H]1CC[C@@H](CC(C)(C)NC[C@H](O)c2cncc(F)c2)CC1 [Example 176, N-((1S,4s)-4-(2-(((R)-2-(5-Fluoropyridin-3-yl)-2-hydroxyethyl)amino)-2-methylpropyl)cyclohexyl)acetamide] | + + + | < 25 |  | 
Cc1ncccc1[C@@H](O)CNC(C)(C)C[C@H]1CC[C@H](NS(C)(=O)=O)CC1 [Example 146, N-((1R,4r)-4-(2-(((R)-2Hydroxy-2-(2-methylpyridin-3-yl)ethyl)amino)-2-methylpropyl)cyclohexyl)methanesulfonamide dihydrochloride] | + + | < 25 |  | 
CO[C@H]1CCC[C@@H](C(C)(C)NC[C@H](O)c2cncc(F)c2)C1 (single isomer, unassigned) [Example 122] | + + + |  |  | + +
COC(=O)[C@H]1CC[C@@H](CC(C)(C)NC[C@H](O)c2cccc(F)c2)CC1 [Example 103, Methyl (1S,4s)-4-(2-(((R)-2-(3-fluorophenyl)-2-hydroxyethyl)amino)-2-methylpropyl)cyclohexane-1-carboxylate] | + + + | < 25 |  | 
CC(C)(C[C@H]1CC[C@H](C(=O)O)CC1)NC[C@H](O)c1cccc(F)c1 [Example 109, (1R,4r)-4-(2-(((R)-2-(3-fluorophenyl)-2-hydroxyethyl)amino)-2-methyl-propyl)cyclohexane-1-carboxylic acid acetate] | + + | < 25 |  | 
CO[C@H]1CC[C@H](C(C)(C)NC[C@H](O)c2cccc(F)c2)CC1 [Example 7] | + + + | < 25 |  | 
O[C@@H](CNCC[C@H]1CC[C@@H](O)CC1)c1cccc(F)c1 [Example 42, (1S,4s)-4-(2-(((R)-2-(3-Fluorophenyl)-2-hydroxyethyl)amino)ethyl)-cyclohexan-1-ol] | + + | < 25 |  | 
CC(=O)N(C)[C@H]1CC[C@H](CC(C)(C)NC[C@H](O)c2cccc(F)c2)CC1.Cl [Example 178, N-((1R,4r)-4-(2-(((R)-2-(3-Fluorophenyl)-2-hydroxyethyl)amino)-2-methylpropyl)cyclohexyl)-N-methylacetamide hydrochloride] | + + + | < 25 |  | 
CC(C)(NC[C@H](O)c1cccc(F)c1)[C@H]1CC[C@@H](O)CC1 [Example 34, (1S,4s)-4-(2-(((R)-2-(3-Fluorophenyl)-2-hydroxyethyl)amino)propan-2-yl)cyclohexan-1-ol] | + + | < 25 |  | 
CC(C)(NC[C@H](O)c1cncc(F)c1)[C@H]1CC[C@H](OCC(=O)O)CC1 [Example 127, 2-(((1R,4r)-4-(2-(((R)-2-(5-Fluoropyridin-3-yl)-2-hydroxyethyl)amino)-propan-2-yl)cyclohexyl)oxy)acetic acid] | + + | < 25 |  | 
CS(=O)(=O)N[C@H]1CC[C@H](CNC[C@H](O)c2cncc(F)c2)CC1 [Example 72, N-((1R,4r)-4-((((R)-2-(5-Fluoropyridin-3-yl)-2-hydroxyethyl)amino)methyl)-cyclohexyl)methanesulfonamide] |  | < 25 | 25 to 50 | 
CC(C)(C[C@H]1CC[C@H](NS(C)(=O)=O)CC1)NC[C@H](O)c1cncc(F)c1 [Example 89, N-((1R,4r)-4-(2-(((R)-2-(5-Fluoropyridin-3-yl)-2-hydroxyethyl)amino)-2-methylpropyl)cyclohexyl)methanesulfonamide] | + + + | < 25 |  | 
O[C@@H](CNCC[C@H]1CC[C@H](OCc2ccccc2)CC1)c1cncc(F)c1 [Example 47, (R)-2-((2-((1r,4R)-4-(Benzyloxy)cyclohexyl)ethyl)amino)-1-(5-fluoropyridin-3-yl)ethan-1-ol] |  | < 25 | < 25 | 
CN(C)S(=O)(=O)[C@H]1CC[C@H](CC(C)(C)NC[C@H](O)c2cncc(F)c2)CC1 [Example 187, (1R,4r)-4-(2-(((R)-2-(5-Fluoropyridin-3-yl)-2-hydroxyethyl)amino)-2-methylpropyl)-N,N-dimethylcyclohexane-1-sulfonamide dihydrochloride] | + + + | 25 to 50 |  | 
CC(C)(CC[C@H]1CC[C@@H](O)CC1)NC[C@H](O)c1ccccc1F [Example 65, (1R,4s)-4-(3-(((R)-2-(2-Fluorophenyl)-2-hydroxyethyl)amino)-3-methyl-butyl)cyclohexan-1-ol] | + + + | 25 to 50 |  | 
CC(C)(CCC1CCC(O)CC1)NC[C@H](O)c1ccccc1F (stereo partly drawn) [Example 62, (1S,4r)-4-(3-(((R)-2-(2-Fluorophenyl)-2-hydroxyethyl)amino)-3-methyl-butyl)cyclohexan-1-ol] | + + + | < 25 |  | 
